Entries after “also recorded” stand apart in the source; their conditions may differ. Where no end group is shown, it is not given here. [ ]: non-standard residue; d: D form.
How the values were obtained:
tex.loxP.EG cells [1] = test: TAT-Cre mediated recombination of lox-stop-lox eGFP reporter, flow cytometry of live cells; assay type: cell-based, murine; conditions: for effect on TAT-Cre recombination (endocytosis inhibitors): pretreated 30′ in serum-free media, then TAT-Cre for 1 h, replated overnight; for effect on TAT-Cre recombination (free glycosaminglyans): incubated with TAT-Cre 1 hr in serum-free media, eGFP after 16 hr
3T3 loxP.lacZ cells = test: TAT-Cre recombination of lacZ reporter, in situ β-galactosidase staining; assay type: cell-based; conditions: 100 μM and 200 μM chloroquine with sub-threshold TAT-Cre, overnight, DMEM +10% serum
Description: 3T3 loxP.lacZ cells containing a lacZ reporter expressed after recombination were grown in DMEM (Invitrogen) containing 10% fetal bovine serum. Following recombination cells expressing lacZ were assayed by in situ beta-galactosidase staining (Stratagene).
To determine the effect of endosomal release by chloroquine, 3T3 loxP.lacZ cells were treated with 0. 25 μM TAT-Cre and 0-200 μM chlorocguine (Sigma) in DMEM +10% FBS overnight. LacZ expression was measured by in situ β-galactosidase staining (Stratagene).

3T3 LacZ reporter cells = test: Cytotoxicity (loss of cells) of chloroquine treatment; assay type: cell-based; conditions: effective dose of chloroquine; multiple several cell lines
Description: To recombine DNA and induce eGFP expression, TAT-Cre must escape from macropinosomes. […] Therefore to enhance release from macropinosomes, 3T3 LacZ reporter cells were treated with a sub-threshold dose of TAT-Cre in combination with increasing concentrations of chloroquine, an ion-transporting ATPase inhibitor that prevents vesicle acidification leading to endosomal disruption (FIG. 5a).

mammalian cells = test: TAT-Cre transduction efficiency and cytotoxicity with endosomal release agents (summary statement); assay type: cell-based
tex.loxP.EG cells [2] = test: TAT-Cre-488 and FM4-64 internalization by flow cytometry; assay type: cell-based, murine; conditions: nystatin 30′ pretreatment, then TAT-Cre-488 and FM4-64 for 1 h
Description: Recombination experiments. To measure the rate of TAT-Cre internalization, tex.loxP.EG cells were plated at 5×10^5 cells/well and treated with 0.5 μM TAT-Cre in RPMI +/− 10% FBS. After each time period, cells were trypsinized for 2′, washed and replated into complete media overnight. For all drug treatments [0-50 μg/mL chondroitin sulfate A, B, or C (Sigma), 0-25 μg/mL heparin (Sigma), 0-100 μg/mL nystatin (Fluka), 0-5 mM […] (Sigma), 0-5 mM amiloride (Sigma) and 0-10 μM cytochalasin D (Sigma)], cells were washed and pretreated for 30′ in serum-free media before the addition of TAT-Cre. Cells were maintained for 1 h in the presence of inhibitors (except for cyclodextrin) aftex which they were washed twice and replated overnight in media containing serum. To measure the effect of nystatin on TAT-Cre internalization, tex.loxP.EG cells were pretreated as described with 10, 25 or 50 μg/mL nystatin for 30′ before the addition of 2 μM TAT-Cre-488 and […] FM4-64. After 1 h, the cells were trypsinized and the fluorescence measured by flow cytometry. […] LacZ expression was measured by in situ β-galactosidase staining (Stratagene). For peptide treatments, tex.loxP.EG cells maintained in RPMI +10% FBS were incubated TAT-Cre and either […] HA2-tat or tat peptide for 16-20 h after which eGFP expression was measured by flow cytometry. […]

cells = conditions: cited from earlier work
tex.loxP.EG T cells = test: Cell surface binding of TAT-Cre; assay type: cell-based, murine; conditions: free glycosaminglyans in increasing concentrations, 1 hr, serum-free media
Description: Full-length TAT protein has previously been reported to bind strongly to cell surface heparin sulfate proteoglycans. […] To determine whether cell surface binding was a necessary and prerequisite step for TAT-Cre internalization, cells were incubated with TAT-Cre and increasing concentrations of free glycosaminglyans for 1 hr in serum-free media, then washed and replated the cells in complete media, and measured eGFP expression after 16 hr.

cell surface = conditions: increasing concentrations of polyanions; cited from earlier work
[3] = system: viral promoter within cells in culture; conditions: cited from earlier work

N=C(N)NC(=O)c1nc(Cl)c(N)nc1N [amiloride]
effect on TAT-Cre recombination (endocytosis inhibitors) (tex.loxP.EG cells [1]): dose-dependent inhibition of TAT-Cre transduction into the cells and lack of recombination; also recorded: dose-dependent decrease in recombination

CCN(CC)CCCC(C)Nc1ccnc2cc(Cl)ccc12 (stereo not drawn) [chloroquine]
effect on TAT-Cre recombination and LacZ expression (3T3 loxP.lacZ cells): significant increase in recombination and LacZ expression; also recorded: increases TAT-Cre recombination | cytotoxicity (3T3 LacZ reporter cells): extensive cytotoxicity | cytotoxicity (mammalian cells): extensive cytotoxicity | effect on transduction efficiency of TAT-Cre (mammalian cells): moderately increased transduction efficiency

C=C1[C@@H](C)[C@H]2[C@H](Cc3ccccc3)NC(=O)[C@]23[C@H](OC(C)=O)/C=C/[C@@](C)(O)C(=O)[C@@H](C)C/C=C/[C@H]3[C@@H]1O [cytochalasin D]
effect on TAT-Cre recombination (endocytosis inhibitors) (tex.loxP.EG cells [1]): dose-dependent inhibition of TAT-Cre transduction into the cells and lack of recombination; also recorded: dose-dependent decrease in recombination

C[C@@H]1[C@H](O)[C@@H](C)/C=C/C=C/CC/C=C/C=C/C=C/C=C/C(O[C@H]2O[C@H](C)[C@@H](O)[C@H](N)[C@@H]2O)CC2O[C@](O)(CC(O)C(O)CCC(O)CC(O)CC(O)CC(=O)O[C@H]1C)CC(O)C2C(=O)O (stereo partly drawn) [nystatin]
effect of nystatin pretreatment on HA2-TAT-mediated enhancement of recombination (tex.loxP.EG cells [1]; nystatin 30′ in serum-free media, then TAT-Cre +/− 5 mM HA2-TAT for 1 h): inhibited HA2-TAT-mediated enhancement of recombination; also recorded: blocks the effect of HA2-TAT peptide | effect on TAT-Cre recombination (endocytosis inhibitors) (tex.loxP.EG cells [1]): dose-dependent inhibition of recombination | FM4-64 endosomal dye internalization after nystatin treatment (tex.loxP.EG cells [2]): only a minor decrease | TAT-Cre-488 internalization after nystatin treatment (tex.loxP.EG cells [2]): near complete loss of TAT-Cre-488 internalization

OC[C@H]1O[C@@H]2O[C@H]3[C@H](O)[C@@H](O)[C@@H](O[C@H]4[C@H](O)[C@@H](O)[C@@H](O[C@H]5[C@H](O)[C@@H](O)[C@@H](O[C@H]6[C@H](O)[C@@H](O)[C@@H](O[C@H]7[C@H](O)[C@@H](O)[C@@H](O[C@H]8[C@H](O)[C@@H](O)[C@@H](O[C@H]1[C@H](O)[C@H]2O)O[C@@H]8CO)O[C@@H]7CO)O[C@@H]6CO)O[C@@H]5CO)O[C@@H]4CO)O[C@@H]3CO [β-cyclodextrin]
effect on TAT-Cre recombination (endocytosis inhibitors) (tex.loxP.EG cells [1]): dose-dependent inhibition of recombination

FITKALGISYGRKKRR [TAT-(37-53)]
cell internalization and nuclear localization (cells): not able to transduce into cells

GRKKRRQ RRRPPQ (GRKKRRQRRRPPQ) [TAT-(48-60)]
cell internalization and nuclear localization (cells): fully retained the ability for cell internalization and nuclear localization | transduction efficiency relative to other active peptide sequences (cells): more efficiently transduced than other active peptide sequences

GRKKRRQRRR (G[dR][dK][dK][dR][dR][dQ][dR][dR][dR]) [TAT D-isomer peptide, control TAT peptide]
effect of peptide on TAT-Cre recombination (in words) (tex.loxP.EG cells [1]): only minor increases in recombination

LGISYGRKKRRQRRRPPQ [TAT-(43-60)]
cell internalization and nuclear localization (cells): fully retained the ability for cell internalization and nuclear localization

chondroitin sulfate B
effect on TAT-Cre recombination (free glycosaminglyans) (tex.loxP.EG cells [1]): strongly inhibited subsequent recombination | effect on surface binding of TAT-Cre (tex.loxP.EG T cells): prevented surface binding of TAT-Cre

chondroitin sulfate C
effect on TAT-Cre recombination (free glycosaminglyans) (tex.loxP.EG cells [1]): strongly inhibited subsequent recombination | effect on surface binding of TAT-Cre (tex.loxP.EG T cells): prevented surface binding of TAT-Cre

dextran sulphate
effect on intracellular accumulation of TAT (cell surface): competitively blocked

heparin
effect on TAT-Cre recombination (free glycosaminglyans) (tex.loxP.EG cells [1]): strongly inhibited subsequent recombination | effect on surface binding of TAT-Cre (tex.loxP.EG T cells): prevented surface binding of TAT-Cre | effect on intracellular accumulation of TAT (cell surface): competitively blocked

B1: TAT protein: HIV-1 transcriptional activator TAT protein, full length (protein)
chain: MEPVDPRLEPWKHPGSQPKTACTNCYCKKCCFHCQVCFITKALGISYGRKKRRQRRRPPQGSQTHQVSLSKQPTSQSRGDPTGPKE
modifications: transducing protein
concentration sufficient to induce reporter activity ([3]; added to the culture media, no external perturbations): 1 nM | treatment time of maximal increase in biological activity ([3]; all cell types used): 5 minutes

B2: Cre: control Cre protein without TAT, expressed and purified under identical conditions (protein, UniProt P06956 1-343, looked up)
Recombinase cre: MSNLLTVHQNLPALPVDATSDEVRKNLMDMFRDRQAFSEHTWKMLLSVCRSWAAWCKLNNRKWFPAEPEDVRDYLLYLQARGLAVKTIQQHLGQLNMLHRRSGLPRPSDSNAVSLVMRRIRKENVDAGERAKQALAFERTDFDQVRSLMENSDRCQDIRNLAFLGIAYNTLLRIAEIARIRVKDISRTDGGRMLIHIGRTKTLVSTAGVEKALSLGVTKLVERWISVSGVADDPNNYLFCRVRKNGVAAPSATSQLSTRALEGIFEATHRLIYGAKDDSGQRYLAWSGHSARVGAARDMARAGVSIPEIMQAGGWTNVNIVMNYIRNLDSETGAMVRLLEDGD
site specific recombination and eGFP expression after treatment (tex.loxP.EG cells [1]; tex.loxP.EG cells, eGFP measured 16-20 h later by flow cytometry): failed to undergo recombination and express eGFP
